Source: article PMC3983391 (Journal of medicinal chemistry, 2014)
Entries after “also recorded” stand apart in the source; their conditions may differ.

Key:
[1] = Toxicity in the nude mouse MCF7 xenograft study; settings: nude mice; for death: dead/total
[2] = data reported previously; cited from earlier work
[3] = tested on: human tumor cell line (HTCL) panel (A549, KB, KBvin, DU145); assay: SRB antiproliferative activity, ranges over the HTCL panel; assay type: cell-based; settings: read-out: GI50 range over HTCL panel
[4] = tested on: tubulin (vinblastine site); assay: Competitive inhibition assay, BODIPY FL-vinblastine binding to tubulin; set-up: species or system dog; settings: tubulin 4 μM, BODIPY FL-vinblastine 2 μM; even at 30–100 μM
A549 cells [5] = assay: Cell cycle analysis by propidium iodide flow cytometry; assay type: cell-based, human; settings: A549, 24 h; 5f 3 nM, colchicine 300 nM
A549 cells [6] = assay: Immunocytochemistry of cellular microtubules; assay type: cell-based, human; settings: A549, 24 h; 5f 3 nM, paclitaxel 100 nM, colchicine 100 nM
MCF7 tumor xenografts = assay: Nude mouse MCF7 xenograft antitumor assay; assay type: in vivo; settings: 4 mg/kg i.v. every 3 days; p < 0.05 from day 10 onward

SMILES	GI50 [3]	further results
COc1ccc2c(c1)CCCN2c1nc(Cl)nc2ccccc12 [1a, 2-chloro-4-(6-methoxy-3,4-dihydroquinolin-1(2H)-yl)quinazoline]		death ([1]; 4 mg/kg i.v., Q3D × 6): 0/5
COc1ccc2c(c1)CCCN2c1nc(C)nc2ccccc12 [1b, 2-methyl-4-(6-methoxy-3,4-dihydroquinolin-1(2H)-yl)quinazoline]		human liver microsome t1/2 [2]: 25.2 min; death ([1]; 4 mg/kg i.v., Q3D × 6): 1/6
Cc1ccc2c(c1)CCCN2c1nc(Cl)nc2ccccc12 [4a, 2-Chloro-4-(N-(6-methyl-3,4-dihydroquinolinyl))quinazoline]	43 to 57 nM	
Cc1ccc2c(c1)CCCN2c1nc(C)nc2ccccc12 [4b, 2-Methyl-4-(N-(6-methyl-1,2,3,4-tetrahydroquinolinyl))-quinazoline]	169 to 211 nM	
Cc1nc(N2CCCc3cc(Br)ccc32)c2ccccc2n1 [4c, 4-(N-(6-Bromo-1,2,3,4-tetrahydroquinolinyl))-2-methylqui-nazoline]	169 to 211 nM	
COc1ccc2c(c1)NC(=O)CN2c1nc(C)nc2ccccc12 [5f, 2-Methyl-4-(7-methoxy-2-oxo-3,4-dihydroquinoxalin-4(1H)-yl)quinazoline]	1.9 to 3.2 nM	effect on binding of BODIPY FL-vinblastine to tubulin [4]: did not significantly change; also recorded: did not compete; effect on the cell cycle (A549 cells [5]): arrested at the G2/M phase; effect on cellular microtubule network (A549 cells [6]): microtubule network disappeared; toxicity observation ([1]; 4 mg/kg i.v. every 3 days, 4 mg/kg): toxicity and death; also recorded: all seven mice died; also recorded: death of all treated mice; death ([1]; 4 mg/kg i.v., Q3D × 6): 7/7
COc1ccc2c(c1)N(C)C(=O)CN2c1nc(C)nc2ccccc12 [5g, 2-Methyl-4-(1-methyl-7-methoxy-2-oxo-3,4-dihydroquinox-alin-4-yl)quinazoline]	17 to 25 nM	growth of MCF7 tumor xenografts (tumor volume vs control) (MCF7 tumor xenografts): significantly inhibited; body weight change (%) ([1]; 4 mg/kg i.v., Q3D × 6): +2.28%; death ([1]; 4 mg/kg i.v., Q3D × 6): 0/7
COc1cc2c(c(OC)c1OC)-c1ccc(OC)c(=O)cc1[C@@H](NC(C)=O)CC2 [colchicine, reference compound]		effect on the cell cycle (A549 cells [5]): arrested at the G2/M phase; effect on cellular microtubule network (A549 cells [6]): microtubule network disappeared
CC(=O)O[C@H]1C(=O)[C@@]2(C)[C@H]([C@H](OC(=O)c3ccccc3)[C@]3(O)C[C@H](OC(=O)[C@H](O)[C@@H](NC(=O)c4ccccc4)c4ccccc4)C(C)=C1C3(C)C)[C@]1(OC(C)=O)CO[C@@H]1C[C@@H]2O [paclitaxel]		effect on cellular microtubule network (A549 cells [6]): retained a spindle-shaped microtubule network

Now from value to compound, other results behind:

GI50 [3]	SMILES	further results
27 to 33 nM	COc1ccc2c(c1)C(=O)CCN2c1nc(Cl)nc2ccccc12 [5a, 2-Chloro-4-(N-(6-methoxy-2,3-dihydro-4-oxoquinolinyl))-quinazoline]	
19 to 24 nM	COc1ccc2c(c1)C(=O)CCN2c1nc(C)nc2ccccc12 [5b, 4-(N-(6-Methoxy-2,3-dihydro-4-oxoquinolinyl))-2-methyl-quinazoline]	
17 to 19 nM	COc1ccc2c(c1)C(O)CCN2c1nc(C)nc2ccccc12 (centres unmarked) [5c, 4-(N-(4-Hydroxy-6-methoxy-1,2,3,4-tetrahydroquinolinyl))-2-methylquinazoline]	
153 to 211 nM	COc1ccc2c(c1)OCCN2c1nc(Cl)nc2ccccc12 [5d, 2-Chloro-4-(N-(7-methoxy-3,4-dihydro-2H-benzo[b][1,4]-oxazinyl))quinazoline]	
153 to 211 nM	COc1ccc2c(c1)OCCN2c1nc(C)nc2ccccc12 [5e]	
170 to 320 nM	COc1ccc2c(c1)CCN2c1nc(Cl)nc2ccccc12 [5h, 2-Chloro-4-(N-(5-methoxy)indolinyl)quinazoline]	
170 to 320 nM	COc1ccc2c(c1)CCN2c1nc(C)nc2ccccc12 [5i, 4-(N-(5-Methoxy)indolinyl)-2-methylquinazoline]	
18 to 21 nM	COc1ccc2c(c1)CCCCN2c1nc(C)nc2ccccc12 [5k, 4-(N-(7-Methoxy-2,3,4,5-tetrahydro-1H-benzo[b]azepinyl))-2-methylquinazoline]	
5450 to 19600 nM	COc1ccc2c(c1)CCCN(c1nc(Cl)nc3ccccc13)C2 [5l, 2-Chloro-4-(N-(7-methoxy-2,3,4,5-tetrahydro-1H-benzo[c]-azepinyl))quinazoline]	
5450 to 19600 nM	COc1ccc2c(c1)CCCN(c1nc(C)nc3ccccc13)C2 [5m, 4-(N-(7-Methoxy-2,3,4,5-tetrahydro-1H-benzo[c]azepinyl))-2-methylquinazoline]	
